Measured values taken from ChEMBL document CHEMBL2380304, “Synthesis of 2-methoxybenzoylhydrazone and evaluation of their antileishmanial activity” (Bioorg Med Chem Lett, 2013).

tested on: Leishmania major; test: Antileishmanial activity against promastigotes of Leishmania major after 72 hrs by Neubauer counting chamber-based microscopic analysis; type: functional, organism-based

SMILES | IC50 [µM]
COc1ccc(/C=N/NC(=O)c2ccccc2OC)c(O)c1 | 13.2
COc1ccc(/C=N/NC(=O)c2ccccc2OC)cc1OC | 13.2
COC(=O)c1ccc(/C=N/NC(=O)c2ccccc2OC)cc1 | 15.7
COc1ccc(/C=N/NC(=O)c2ccccc2OC)cc1 | 40.1
COc1ccc(/C=N/NC(=O)c2ccccc2OC)cc1O | 45.7
COc1cc(/C=N/NC(=O)c2ccccc2OC)cc(OC)c1 | 53.1
N=C(N)c1ccc(OCCCCCOc2ccc(C(=N)N)cc2)cc1 [PENTAMIDINE] | 5.09
COc1ccccc1C(=O)N/N=C/c1ccc(OC)c(O)c1I | 63.4
COc1ccccc1C(=O)N/N=C/c1ccc([N+](=O)[O-])cc1 | 31.6
COc1ccc(/C=N/NC(=O)c2ccccc2OC)cc1Br | 7.64
COc1ccccc1C(=O)N/N=C/c1cc(O)c(O)c(O)c1 | 31.5

The next lines start with the values.

IC50 [µM] | SMILES
68.5 | COc1ccccc1C(=O)N/N=C/c1ccc(Cl)cc1
34.9 | COc1ccccc1C(=O)N/N=C/c1cc(O)ccc1O
3.29 | COc1ccccc1C(=O)N/N=C/c1ccc(O)c(O)c1
68 | COc1ccccc1C(=O)N/N=C/c1cccc(O)c1O
77.4 | COc1ccccc1C(=O)N/N=C/c1ccc(Br)c(F)c1
57.4 | COc1ccccc1C(=O)N/N=C/c1ccc(O)cc1
75.9 | COc1ccccc1C(=O)N/N=C/c1ccncc1
1.95 | COc1ccccc1C(=O)N/N=C/c1cccnc1
60 | COc1ccccc1C(=O)N/N=C/c1ccccn1
2.49 | COc1ccccc1C(=O)N/N=C/c1cccs1
88.6 | COc1ccccc1C(=O)N/N=C/c1ccc(O)cc1O
